According to the SangsterLogP compilation:

Assay: method code SF-AS, from DOI: 10.1080/02772249909358822

In order of rising logP:
1. COP(=O)(OC)ON=C(C#N)c1ccc(F)cc1  -1.08
2. COP(=O)(OC)O/N=C(/C#N)c1ccccc1  -1.01
3. CC(C)OP(=O)(ON=C(C#N)c1ccc(F)cc1)OC(C)C  -0.43
4. COc1ccc(C(C#N)=NOP(=O)(OC(C)C)OC(C)C)cc1OC  -0.38
5. CC(C)OP(=O)(ON=C(C#N)c1ccc(Cl)cc1)OC(C)C  -0.2
6. CCOP(=S)(OCC)ON=C(C#N)c1ccc(OC)c(OC)c1  -0.19
7. CC(C)OP(=O)(O/N=C(/C#N)c1ccccc1)OC(C)C  0.06
8. CCOP(=S)(OCC)ON=C(C#N)c1ccc(F)cc1  0.35
9. COc1ccc(C(C#N)=NOP(=S)(OC(C)C)OC(C)C)cc1OC  0.47
10. CCOP(=S)(OCC)ON=C(C#N)c1ccc(Cl)cc1  0.47
11. CCOP(=O)(OCC)ON=C(C#N)c1csc2ccccc12  0.56
12. COP(=O)(OC)ON=C(C#N)c1csc2ccccc12  0.76
13. COC(=O)c1oc2ccccc2c1C(C#N)=NOP(=O)(OC(C)C)OC(C)C  1.36
14. CC(C)OP(=O)(ON=C(C#N)c1csc2ccccc12)OC(C)C  1.56
15. CCCOP(=O)(OCCC)ON=C(C#N)c1csc2ccccc12  1.67
16. COP(=S)(OC)ON=C(C#N)c1csc2ccccc12  1.94
17. CC(C)OP(=S)(O/N=C(/C#N)c1ccccc1)OC(C)C  2.07
18. CCOP(=S)(OCC)ON=C(C#N)c1csc2ccccc12  2.56
19. CCCCOP(=O)(OCCCC)ON=C(C#N)c1csc2ccccc12  2.73
